From US6472526B1, “Imidazole derivatives having an inhibitory activity for farnesyl transferase and process for preparation thereof” (LG Chemical Ltd., priority 1997, dated 2002)

Legend:
Ras farnesyl transferase [1] = target: T1, Ras farnesyl transferase (Homo sapiens, UniProt P49354+P49356); test: In vitro inhibitory activity for Ras farnesyl transferase, H-Ras substrate; type: biochemical; settings: recombinant farnesyl transferase 4.5 nM, Ras substrate protein 1.5 μM, tritium-farnesylpyrophosphate 0.15 μM, 30 minutes at 37° C.; read-out: H-Ras IC50
T1 construct: made in house

Ras farnesyl transferase [2] = target: T1, Ras farnesyl transferase; test: In vitro inhibitory activity for Ras farnesyl transferase, K-Ras substrate; type: biochemical; settings: in vitro farnesyl transferase assay, K-Ras; read-out: K-Ras IC50
Ras farnesyl transferase [3] = target: T2, Ras farnesyl transferase (Rattus norvegicus, UniProt Q02293+Q04631); test: In vivo (cellular) inhibitory activity for Ras farnesyl transferase, Rat2 cell line which expresses C-Harvey-Ras protein; type: cell-based; settings: Rat2 cell line expressing C-Harvey-Ras; concentration inhibiting 50% of farnesyl bonding of Ras protein; read-out: H-Ras CIC50
T2 construct: endogenous in cells; host or cells: Rat2 fibroblasts transformed with H-Ras or with an H-Ras/K-Ras C-terminus fusion
Procedure, shortened: (§1)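 Transformed Rat2 fibroblasts (H-Ras or H-Ras/K-Ras polybasic-tail fusion) treated with compound in 1% DMSO; after 4 h labelled with [35S]methionine 150 μCi/ml for 20 h. Lysates immunoprecipitated with anti-Ras Y13-259, resolved by 13.5% SDS-PAGE and autoradiography; CIC50 = concentration inhibiting 50% of Ras farnesylation from band intensities.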

Ras farnesyl transferase [4] = target: T2, Ras farnesyl transferase; test: In vivo (cellular) inhibitory activity for Ras farnesyl transferase, Rat2 cell line transformed with fused protein of H-Ras substituted with polybasic lysine domain at C-terminus of K-Ras; type: cell-based; settings: Rat2 cell line transformed with H-Ras fused with polybasic lysine domain of K-Ras C-terminus; concentration inhibiting 50% of farnesyl bonding; read-out: K-Ras CIC50
Procedure, shortened: as §1

| Compound | IC50 (Ras farnesyl transferase [1]) | IC50 (Ras farnesyl transferase [2]) | IC50 (Ras farnesyl transferase [3]) | IC50 (Ras farnesyl transferase [4]) |
| --- | --- | --- | --- | --- |
| CN1CCN(C(=O)c2cn(Cc3cncn3CCc3ccccc3Cl)cc2-c2cccc3ccccc23)CC1 [Compound 24, 1-[1-(2-Chloro)phenethyl-1H-imidazol-5-yl]methyl-3-[4-methylpiperazin-1-yl]carbonyl-4-(naphthalen-1-yl)-1H-pyrrole] | 2 nM | 3 nM | 25 nM | 10000 to 50000 nM |
| COCCN(C)C(=O)c1cn(Cc2cncn2CCc2cccc(Cl)c2)cc1-c1cccc2ccccc12 [Compound 25, 1-[1-(3-Chloro)phenethyl-1H-imidazol-5-yl]methyl-3-[N-(2-methoxyethyl)-N-methyl]carbamoyl-4-(naphthalen-1-yl)-1H-pyrrole] | 2 nM | 5 nM | 15 nM | 10000 to 50000 nM |
| CN1CCN(C(=O)c2cn(Cc3cncn3CCc3cccc(Cl)c3)cc2-c2cccc3ccccc23)CC1 [Compound 26, 1-[1-(3-Chloro)phenethyl-1H-imidazol-5-yl]methyl-3-[4-methylpiperazin-1-yl]carbonyl-4-(naphthalen-1-yl)-1H-pyrrole] | 2 nM | 3 nM | 15 nM | 10000 to 50000 nM |
| COCCN(C)C(=O)c1cn(Cc2cncn2CCCc2ccccc2)cc1-c1cccc2ccccc12 [Compound 27, 3-[N-(2-Methoxyethyl)-N-methyl]carbamoyl-4-(naphthalen-1-yl)-1-[1-(3-pheny)propyl-1H-imidazol-5-yl]methyl-1H-pyrrole] | 6 nM | 5 nM | 25 nM | 10000 to 30000 nM |
| CN1CCN(C(=O)c2cn(Cc3cncn3CCCc3ccccc3)cc2-c2cccc3ccccc23)CC1 [Compound 28] | 1 nM | 2 nM | 20 nM | 10000 to 30000 nM |
| COCCN(C)C(=O)c1cn(Cc2cncn2Cc2ccc3ccccc3c2)cc1-c1cccc2ccccc12 [Compound 29, 3-[N-(2-Methoxyethyl)-N-methyl]carbamoyl-4-(naphthalen-1-yl)-1-[1-(naphthalen-2-yl)methyl-1H-imidazol-5-yl]methyl-1H-pyrrole] | 2 nM | 4 nM | 10 nM | 10000 to 20000 nM |
| CN1CCN(C(=O)c2cn(Cc3cncn3Cc3ccc4ccccc4c3)cc2-c2cccc3ccccc23)CC1 [Compound 30] | 2 nM | 4 nM | 10 nM | 10000 to 20000 nM |
| COCCN(C)C(=O)c1cn(Cc2cncn2CCc2cccc3ccccc23)cc1-c1cccc2ccccc12 [Compound 31, 3-[N-(2-Methoxyethyl)-N-methyl]carbamoyl-4-(naphthalen-yl)-1-{1-[2-(naphthalen-1-yl)ethyl]-1H-imidazol-5-yl}methyl-1H-pyrrole] | 2 nM | 5 nM | 12 nM | 10000 to 20000 nM |
| CN1CCN(C(=O)c2cn(Cc3cncn3CCc3cccc4ccccc34)cc2-c2cccc3ccccc23)CC1 [Compound 32, 3-[4-Methylpiperazin-1-yl]carbonyl-4-(naphthalen-1-yl)-1-{1-[2-(naphthalen-1-yl)ethyl]-1H-imidazol-5-yl}methyl-1H-pyrrole] | 2 nM | 3 nM | 15 nM | 10000 to 50000 nM |
| COCCN(C)C(=O)c1cn(Cc2cncn2CCc2ccc(Br)cc2)cc1-c1cccc2ccccc12 [Compound 33, 1-[1-(4-Bromo)phenethyl-1H-imidazol-5-yl]methyl-3-[N-(2-methoxyethyl)-N-methyl]carbamoyl-4-(naphthalen-1-yl)-1H-pyrrole] | 2 nM | 3 nM | 18 nM | 10000 to 50000 nM |
| CN1CCN(C(=O)c2cn(Cc3cncn3CCc3ccc(Br)cc3)cc2-c2cccc3ccccc23)CC1 [Compound 34, 1-[1-(4-Bromo)phenethyl-1H-imidazol-5-yl]methyl-3-[4-methylpiperazin-1-yl]carbonyl-4-(naphthalen-1-yl)-1H-pyrrole] | 2 nM | 3 nM | 20 nM | 10000 to 50000 nM |
| COCCN(C)C(=O)c1cn(Cc2cncn2CCc2ccc(F)cc2)cc1-c1cccc2ccccc12 [Compound 35, 1-[1-(4-Fluoro)phenethyl-1H-imidazol-5-yl]methyl-3-[N-(2-methoxyethyl)-N-methyl]carbamoyl-4-(naphthalen-1-yl)-1H-pyrrole] | 1 nM | 2 nM | 25 nM | 10000 to 50000 nM |
| CN1CCN(C(=O)c2cn(Cc3cncn3CCc3ccc(F)cc3)cc2-c2cccc3ccccc23)CC1 [Compound 36, 1-[1-(4-Fluoro)phenethyl-1H-imidazol-5-yl]methyl-3-[4-methylpiperazin-1-yl]carbonyl-4-(naphthalen-1-yl)-1H-pyrrole] | 1 nM | 2 nM | 25 nM | 10000 to 50000 nM |
| COCCN(C)C(=O)c1cn(Cc2cncn2CCc2ccc(C)cc2)cc1-c1cccc2ccccc12 [Compound 37, 3-[N-(2-Methoxyethyl)-N-methyl]carbamoyl-1-[1-(4-methyl)phenethyl-1H-imidazol-5-yl]methyl-4-(naphthalen-1-yl)-1H-pyrrole] | 2 nM | 3 nM | 25 nM | 10000 to 50000 nM |
| Cc1ccc(CCn2cncc2Cn2cc(C(=O)N3CCN(C)CC3)c(-c3cccc4ccccc34)c2)cc1 [Compound 38, 1-[1-(4-Methyl)phenethyl-1H-imidazol-5-yl]methyl-3-[4-methylpiperazin-1-yl]carbonyl-4-(naphthalen-1-yl)-1H-pyrrole] | 2 nM | 4 nM | 25 nM | 10000 to 50000 nM |
| COCCN(C)C(=O)c1cn(Cc2cncn2CCc2ccc(Cl)cc2)cc1-c1cccc2ccccc12 [Compound 39, 1-[1-(4-Chloro)phenethyl-1H-imidazol-5-yl]methyl-3[N-(2-methoxyethyl)-N-methyl]carbamoyl-4-(naphthalen-1-yl)-1H-pyrrole] | 2 nM | 3 nM | 20 nM | 10000 to 50000 nM |
| CN1CCN(C(=O)c2cn(Cc3cncn3CCc3ccc(Cl)cc3)cc2-c2cccc3ccccc23)CC1 [Compound 40] | 2 nM | 3 nM | 25 nM | 10000 to 50000 nM |
| COCCN(C)C(=O)c1cn(Cc2cncn2CCc2ccc3ccccc3c2)cc1-c1cccc2ccccc12 [Compound 41, 3-[N-(2-Methoxyethyl)-N-methyl]carbamoyl-4-(naphthalen-1-yl)-1-{1-[2-(naphthalen-2-yl)ethyl]-1H-imidazol-5-yl}methyl-1H-pyrrole] | 3 nM | 4 nM | 15 nM | 10000 to 50000 nM |
| CN1CCN(C(=O)c2cn(Cc3cncn3CCc3ccc4ccccc4c3)cc2-c2cccc3ccccc23)CC1 [Compound 42, 3-[4-Methylpiperazin-1-yl]carbonyl-4-(naphthalen-1-yl)-1-{1-[2-(naphthalen-2-yl)ethyl]-1H-imidazol-5-yl}methyl-1H-pyrrole] | 4 nM | 3 nM | 15 nM | 10000 to 50000 nM |
| CN1CCN(C(=O)c2cn(Cc3cncn3CCc3ccc(O)cc3)cc2-c2cccc3ccccc23)CC1 [Compound 43, 1-[1-(4-Hydroxy)phenethyl-1H-imidazol-5-yl]methyl-3-[4-mmethylpiperazin-1-yl]carbonyl-4-(naphthalen-1-yl)-1H-pyrrole] | 1 nM | 2 nM | 15 nM | 5000 to 10000 nM |
| O=C(c1cccs1)c1cn(Cc2c[nH]cn2)cc1-c1cccc2ccccc12 [Compound 44, 1-(1H-Imidazol-4-yl)methyl-4-(naphthalen-1-yl)-3-(thiophen-2-yl)carbonyl-1H-pyrrole] | 250 nM | 100 to 10000 nM | 1000 to 50000 nM | 10000 to 100000 nM |
| O=C(c1ccsc1)c1cn(Cc2c[nH]cn2)cc1-c1cccc2ccccc12 [Compound 45] | 130 nM | 100 to 10000 nM | 1000 to 50000 nM | 10000 to 100000 nM |
| O=C(c1ccccc1)c1cn(Cc2c[nH]cn2)cc1-c1cccc2ccccc12 [Compound 46] | 120 nM | 100 to 10000 nM | 1000 to 50000 nM | 10000 to 100000 nM |
| O=C(c1ccccc1Br)c1cn(Cc2c[nH]cn2)cc1-c1cccc2ccccc12 [Compound 47] | 90 nM | 100 to 10000 nM | 1000 to 50000 nM | 10000 to 100000 nM |
| O=C(c1cccc(Br)c1)c1cn(Cc2c[nH]cn2)cc1-c1cccc2ccccc12 [Compound 48] | 150 nM | 10000 nM | 1000 to 50000 nM | 10000 to 100000 nM |
| O=C(c1ccc(Br)cc1)c1cn(Cc2c[nH]cn2)cc1-c1cccc2ccccc12 [Compound 49] | 30 nM | 485 nM | 700 nM | < 20000 nM |
| Cc1ccccc1C(=O)c1cn(Cc2c[nH]cn2)cc1-c1cccc2ccccc12 [Compound 50] | 150 nM | 100 to 10000 nM | 1000 to 50000 nM | 10000 to 100000 nM |
| Cc1cccc(C(=O)c2cn(Cc3c[nH]cn3)cc2-c2cccc3ccccc23)c1 [Compound 51] | 270 nM | 100 to 10000 nM | 1000 to 50000 nM | 10000 to 100000 nM |
| Cc1ccc(C(=O)c2cn(Cc3c[nH]cn3)cc2-c2cccc3ccccc23)cc1 [Compound 52] | 70 nM | 100 to 10000 nM | 1000 to 50000 nM | 10000 to 100000 nM |
